Results published in US20080249077A1, “17.Beta.-Fluoromethoxycarbonyl-Androst-4-En-3-One Compounds With a 17.Alpha.-Carbonate Sustituent” (priority 2005, published 2008).

These molecules were tested against T1, glucocorticoid receptor (Homo sapiens, UniProt P04150) (assay: Assay for transrepression activity of the glucocorticoid agonists (NF-κB responsive ELAM promoter-sPAP reporter, TNF-stimulated A549 cells)). Conditions: compound 1 hour at 37° C., then TNF 10 ng/ml for 16 hours, read-out: pIC50 (transrepression) (converted).
T1 construct: A549 cells stably transfected with a reporter gene; endogenous in cells; host or cells: A549 cells
T1 sequence (P04150 1-777): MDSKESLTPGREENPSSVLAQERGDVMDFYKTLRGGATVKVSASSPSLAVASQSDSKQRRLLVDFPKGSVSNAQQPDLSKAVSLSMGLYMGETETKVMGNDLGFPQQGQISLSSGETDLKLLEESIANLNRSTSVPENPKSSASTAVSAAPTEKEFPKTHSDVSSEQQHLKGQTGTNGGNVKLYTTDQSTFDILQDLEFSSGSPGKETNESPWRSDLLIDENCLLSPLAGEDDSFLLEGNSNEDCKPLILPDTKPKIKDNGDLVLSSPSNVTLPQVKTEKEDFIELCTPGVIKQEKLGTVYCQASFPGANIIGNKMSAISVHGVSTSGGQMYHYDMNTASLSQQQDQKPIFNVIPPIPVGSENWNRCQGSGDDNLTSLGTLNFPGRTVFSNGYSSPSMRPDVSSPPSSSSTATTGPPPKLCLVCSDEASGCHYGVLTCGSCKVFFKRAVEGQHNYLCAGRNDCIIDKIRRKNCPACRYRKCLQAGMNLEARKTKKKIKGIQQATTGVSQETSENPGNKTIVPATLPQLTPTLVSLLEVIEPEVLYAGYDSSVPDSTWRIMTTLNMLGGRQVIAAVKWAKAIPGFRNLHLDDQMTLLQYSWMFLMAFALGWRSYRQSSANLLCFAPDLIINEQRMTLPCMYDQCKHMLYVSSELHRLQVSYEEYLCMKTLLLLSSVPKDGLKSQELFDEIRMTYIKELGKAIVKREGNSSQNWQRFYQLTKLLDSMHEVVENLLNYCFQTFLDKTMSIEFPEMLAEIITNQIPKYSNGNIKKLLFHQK
Format: cell-based
Protocol: Assay for Transrepression Activity of the Glucocorticoid Agonists
A549 cells stably transfected with a reporter gene containing the NF-κB responsive elements from the ELAM gene promoter coupled to sPAP (secreted alkaline phosphatase) are treated with test compounds at appropriate doses for 1 hour at 37° C. The cells are then stimulated with tumour necrosis factor (TNF, 10 ng/ml) for 16 hours, at which time the amount of alkaline phosphatase produced is measured by a standard colourimetric assay. Dose response curves were constructed from which EC50 values were estimated.
For C[C@@H]1C[C@H]2[C@@H]3C[C@H](F)C4=CC(=O)C=C[C@]4(C)[C@@]3(F)[C@@H](O)C[C@]2(C)[C@@]1(OC(=O)OC1CCCC(C)(C)C1)C(=O)OCF (single isomer, unassigned) [Example 19A, Fluoromethyl(6α,11β,16α,17α)-17-({[(3,3-dimethylcyclohexyl)oxy]carbonyl}oxy)-6,9-difluoro-11-hydroxy-16-methyl-3-oxoandrosta-1,4-diene-17-carboxylate], the IC50 was under 0.1 nM.
CC(OC(=O)O[C@]1(C(=O)OCF)[C@H](C)C[C@H]2[C@@H]3C[C@H](F)C4=CC(=O)C=C[C@]4(C)[C@@]3(F)[C@@H](O)C[C@@]21C)C(C)(C)C (single isomer, unassigned) [Example 23A, Fluoromethyl(6α,11β,16α,17α)-6,9-difluoro-11-hydroxy-16-methyl-3-oxo-17-({[(1,2,2-trimethylpropyl)oxy]carbonyl}oxy)androsta-14-diene-17-carboxylate] showed an IC50 of under 0.1 nM.
CC(OC(=O)O[C@]1(C(=O)OCF)[C@H](C)C[C@H]2[C@@H]3C[C@H](F)C4=CC(=O)C=C[C@]4(C)[C@@]3(F)[C@@H](O)C[C@@]21C)C1CCCC1 (stereo partly drawn) [Example 21A, Fluoromethyl(6α,11β,16α,17α)-17-({[(1-cyclopentylethyl)oxy]carbonyl}oxy)-6,9-difluoro-11-hydroxy-16-methyl-3-oxoandrosta-1,4-diene-17-carboxylate] was tested, and the IC50 was under 0.1 nM.

Each molecule was assayed against T1, glucocorticoid receptor (assay: Assay for transactivation activity of the glucocorticoid agonists (MMTV-LTR renilla luciferase reporter in A549 cells)). Conditions: compound 6 hour at 37° C., read-out: maximal response relative to Dexamethasone (100%) (transactivation).
Format: cell-based
Protocol: Assay for Transactivation Activity of the Glucocorticoid Agonists
The functional assay based on that described by R. J. H. Austin et al., Eur Resp J. (2002), 20, 1386-1392 measures the ability of compounds to directly transactivate gene expression. A549 cells stably transfected with a reporter gene containing the glucocorticoid responsive region of the mouse mammary tumour virus long terminal repeat (MMTV-LTR) coupled to renilla luciferase were treated with test compounds at appropriate doses for 6 hour at 37° C. The amount of luciferase activity present within the cells is then determined by measuring the light emitted following incubation with a suitable substrate. Dose response curves were constructed from which EC50 values were estimated and from which maximal responses are calculated relative to Dexamethasone (100%).
In the case of COC1CCCCC1OC(=O)OC1(C(=O)OCF)C(C)CC2C3CC(F)C4=CC(=O)C=CC4(C)C3(F)C(O)CC21C (stereo not drawn) [Example 18, Fluoromethyl(6α,11β,16α,17α)-6,9-difluoro-11-hydroxy-16-methyl-17-[({[(1RS,2RS)-2-(methyloxy)cyclohexyl]oxy}carbonyl)oxy]-3-oxoandrosta-1,4-diene-17-carboxylate], the Emax is reported as under 25%.
In the case of C[C@@H]1C[C@H]2[C@@H]3C[C@H](F)C4=CC(=O)C=C[C@]4(C)[C@@]3(F)[C@@H](O)C[C@]2(C)[C@@]1(OC(=O)OC1CCCC(C)(C)C1)C(=O)OCF (stereo partly drawn) [Example 19, Fluoromethyl(6α,11β,16α,17α)-17-({[(3,3-dimethylcyclohexyl)oxy]carbonyl}oxy)-6,9-difluoro-11-hydroxy-16-methyl-3-oxoandrosta-1,4-diene-17-carboxylate], the Emax is reported as under 25%.
For CCC(OC(=O)O[C@]1(C(=O)OCF)[C@H](C)C[C@H]2[C@@H]3C[C@H](F)C4=CC(=O)C=C[C@]4(C)[C@@]3(F)[C@@H](O)C[C@@]21C)C1CCCC1 (stereo partly drawn) [Example 20, Fluoromethyl(6α,11β,16α,17α)-17-({[(1-cyclopentylpropyl)oxy]carbonyl}oxy)-6,9-difluoro-11-hydroxy-16-methyl-3-oxoandrosta-1,4-diene-17-carboxylate], the Emax was under 25%.
For CC(OC(=O)O[C@]1(C(=O)OCF)[C@H](C)C[C@H]2[C@@H]3C[C@H](F)C4=CC(=O)C=C[C@]4(C)[C@@]3(F)[C@@H](O)C[C@@]21C)C1CCCC1 (stereo partly drawn) [Example 21, Fluoromethyl(6α,11β,16α,17α)-17-({[(1-cyclopentylethyl)oxy]carbonyl}oxy)-6,9-difluoro-11-hydroxy-16-methyl-3-oxoandrosta-1,4-diene-17-carboxylate], the Emax was under 25%.
CCCC(CCC)OC(=O)O[C@]1(C(=O)OCF)[C@H](C)C[C@H]2[C@@H]3C[C@H](F)C4=CC(=O)C=C[C@]4(C)[C@@]3(F)[C@@H](O)C[C@@]21C [Example 22, Fluoromethyl(6α,11β,16α,17α)-6,9-difluoro-11-hydroxy-16-methyl-3-oxo-17-({[(1-propylbutyl)oxy]carbonyl}oxy)androsta-1,4-diene-17-carboxylate] showed an Emax of under 25%.
CC(OC(=O)O[C@]1(C(=O)OCF)[C@H](C)C[C@H]2[C@@H]3C[C@H](F)C4=CC(=O)C=C[C@]4(C)[C@@]3(F)[C@@H](O)C[C@@]21C)C(C)(C)C (stereo partly drawn) [Example 23, Fluoromethyl(6α,11β,16α,17α)-6,9-difluoro-11-hydroxy-16-methyl-3-oxo-17-({[(1,2,2-trimethylpropyl)oxy]carbonyl}oxy)androsta-14-diene-17-carboxylate] showed an Emax of under 25%.
For C[C@@H]1C[C@H]2[C@@H]3C[C@H](F)C4=CC(=O)C=C[C@]4(C)[C@@]3(F)[C@@H](O)C[C@]2(C)[C@@]1(OC(=O)OCC1C(C)(C)C1(C)C)C(=O)OCF [Example 24, Fluoromethyl(6α,11β,16α,17α)-6,9-difluoro-11-hydroxy-16-methyl-3-oxo-17-[({[(2,2,3,3-tetramethylcyclopropyl)methyl]oxy}carbonyl)oxy]androsta-1,4-diene-17-carboxylate], the Emax was under 25%.
In the case of CCCC(OC(=O)O[C@]1(C(=O)OCF)[C@H](C)C[C@H]2[C@@H]3C[C@H](F)C4=CC(=O)C=C[C@]4(C)[C@@]3(F)[C@@H](O)C[C@@]21C)C(C)C (stereo partly drawn) [Example 25, Fluoromethyl(6α,11β,16α,17α)-6,9-difluoro-11-hydroxy-16-methyl-17-[({[1-(1-methylethyl)butyl]oxy}carbonyl)oxy]-3-oxoandrosta-1,4-diene-17-carboxylate], the Emax is reported as under 25%.
Work on C[C@@H]1C[C@H]2[C@@H]3C[C@H](F)C4=CC(=O)C=C[C@]4(C)[C@@]3(F)[C@@H](O)C[C@]2(C)[C@@]1(OC(=O)OC1C(C)(C)C1(C)C)C(=O)OCF [Example 26, Fluoromethyl(6α,11β,16α,17α)-6,9-difluoro-11-hydroxy-16-methyl-3-oxo-17-({[(2,2,3,3-tetramethylcyclopropyl)oxy]carbonyl}oxy)androsta-1,4-diene-17-carboxylate] yielded an Emax of under 25%.
In the case of C[C@@H]1C[C@H]2[C@@H]3C[C@H](F)C4=CC(=O)C=C[C@]4(C)[C@@]3(F)[C@@H](O)C[C@]2(C)[C@@]1(OC(=O)O[C@@H]1C[C@@H]2CC[C@@]1(C)C2(C)C)C(=O)OCF [Example 27, Fluoromethyl(6α,11β,16α,17α)-6,9-difluoro-11-hydroxy-16-methyl-3-oxo-17-[({[(1S,2R,4S)-1.7.7-trimethylbicyclo[2.2.1]hept-2-yl]oxy}carbonyl)oxy]androsta-1,4-diene-17-carboxylate], the Emax is reported as under 25%.
C[C@@H]1C[C@H]2[C@@H]3C[C@H](F)C4=CC(=O)C=C[C@]4(C)[C@@]3(F)[C@@H](O)C[C@]2(C)[C@@]1(OC(=O)O[C@H]1C[C@H]2CC[C@]1(C)C2(C)C)C(=O)OCF [Example 28, Fluoromethyl(6α,11β,16α,17α)-6,9-difluoro-11-hydroxy-16-methyl-3-oxo-17-[({[(1R,2S,4R)-1,7,7-trimethylbicyclo[2.2.1]hept-2-yl]oxy}carbonyl)oxy]androsta-1,4-diene-17-carboxylate] gave an Emax of under 25%.
Molecule CC1CC2C3CC(F)C4=CC(=O)C=CC4(C)C3(F)C(O)CC2(C)C1(OC(=O)OC1CC2CCC1(C)C2(C)C)C(=O)OCF [Example 29, Fluoromethyl(6α,11β,16α,17α)-6,9-difluoro-11-hydroxy-16-methyl-3-oxo-17-[({[(1R,2R,4R)-1,7,7-trimethylbicyclo[2.2.1]hept-2-yl]oxy}carbonyl)oxy]androsta-1,4-diene-17-carboxylate] has an Emax of under 25%.
Work on C[C@@H]1C[C@H]2[C@@H]3C[C@H](F)C4=CC(=O)C=C[C@]4(C)[C@@]3(F)[C@@H](O)C[C@]2(C)[C@@]1(OC(=O)OC1CCCC1)C(=O)OCF [Example 31, Fluoromethyl(6α,11β,16α,17α)-17-{[(cyclopentyloxy)carbonyl]oxy}-6,9-difluoro-11-hydroxy-16-methyl-3-oxoandrosta-1,4-diene-17-carboxylate] yielded an Emax of under 25%.
C[C@@H]1C[C@H]2[C@@H]3C[C@H](F)C4=CC(=O)C=C[C@]4(C)[C@@]3(F)[C@@H](O)C[C@]2(C)[C@@]1(OC(=O)O[C@H]1C(C)(C)[C@H]2CC[C@]1(C)C2)C(=O)OCF [Example 33, Fluoromethyl(6α,11β,16α,17α)-6,9-difluoro-11-hydroxy-16-methyl-3-oxo-17-[({[(1R,2R,4S)-1,3,3-trimethylbicyclo[2.2.1]hept-2-yl]oxy}carbonyl)oxy]androsta-1,4-diene-17-carboxylate] gave an Emax of under 25%.
